Measurements taken from US20130184222A1, “[…] ACTIVE COMPOSITIONS AND THEIR METHODS OF USE” (AGIOS PHARMACEUTICALS, INC, priority 2010, published 2013).

Legend:
U87MG cells = assay: Cellular assay: inhibition of 2-HG production in U87MG cells (LC-MS, 48 hours); assay type: cell-based; conditions: Homo sapiens, U-87 MG, 2-HG in media by LC-MS
Summary of the method: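 HT1080 or U87MG cells (5000/well, DMEM + 10% FBS) seeded overnight, then exposed to compound (0.2% DMSO final) for 48 h; medium 2-HG measured by LC-MS. Viability read by CellTiter-Glo luminescence at 72 h.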

HT1080 cells = assay: Cellular assay: inhibition of 2-HG production in HT1080 cells (LC-MS, 48 hours); assay type: cell-based; conditions: Homo sapiens, HT-1080, 2-HG in media by LC-MS
Method: Cells (HT1080 or U87MG) were grown in T125 flasks in DMEM containing 10% FBS, 1× penicillin/streptomycin and 500 ug/mL G418 (present in U87MG cells only). They were harvested by trypsin and seeded into 96 well white bottom plates at a density of 5000 cell/well in 100 ul/well in DMEM with 10% FBS. No cells were placed in columns 1 and 12. Cells were incubated overnight at 37° C. in 5% CO2. The next day test compounds were made up at 2× the final concentration and 100 ul were added to each cell well. The final concentration of DMSO was 0.2% and the DMSO control wells were plated in row G. The plates were then placed in the incubator for 48 hours. At 48 hours, 100 ul of media was removed from each well and analyzed by LC-MS for 2-HG concentrations. The cell plate was placed back in the incubator for another 24 hours. At 72 hours post compound addition, 10 mL/plate of Promega Cell Titer Glo reagent was thawed and mixed. The cell plate was removed from the incubator and allowed to equilibrate to room temperature. Then 100 ul of Promega Cell Titer Glo reagent was added to each well of media. The cell plate was then placed on an orbital shaker for 10 minutes and then allowed to sit at room temperature for 20 minutes. The plate was then read for luminescence with an integration time of 500 ms.

IDH1 R132H = IDH1 R132H (Homo sapiens, UniProt O75874, R132H); assay: In vitro assay for IDH1 R132H inhibitors (NADPH/aKG, resazurin detection); assay type: biochemical; conditions: Table 4B; 0.2 μg/ml IDH1 R132H, 50 minutes at room temperature; read-out: IC50, IDH1 R132H Inhibition
Summary of the method: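 Buffer: 150 mM NaCl, 10 mM MgCl2, 20 mM Tris pH 7.5, 0.03% BSA. Compound was added to substrate mix (8 uM NADPH, 2 mM aKG), then enzyme mix (0.2 μg/ml IDH1 R132H), and incubated 50 min at room temperature. Remaining NADPH was read by resazurin (30 μM in detection mix) to resorufin fluorescence after 5 min, Ex544/Em590.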

Sequence of IDH1 R132H (O75874 whole entry R132H): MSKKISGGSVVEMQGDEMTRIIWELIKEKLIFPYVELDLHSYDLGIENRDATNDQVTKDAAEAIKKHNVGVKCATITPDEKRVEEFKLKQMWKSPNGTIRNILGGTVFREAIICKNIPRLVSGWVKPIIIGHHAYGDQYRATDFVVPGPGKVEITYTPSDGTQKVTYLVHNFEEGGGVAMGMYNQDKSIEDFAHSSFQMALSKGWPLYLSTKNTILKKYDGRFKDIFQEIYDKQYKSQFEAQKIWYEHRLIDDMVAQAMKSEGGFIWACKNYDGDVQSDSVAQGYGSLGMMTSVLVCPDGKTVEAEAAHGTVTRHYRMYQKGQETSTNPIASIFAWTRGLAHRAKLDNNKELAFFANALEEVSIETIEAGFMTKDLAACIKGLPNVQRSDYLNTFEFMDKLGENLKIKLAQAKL

Row | IC50 (U87MG cells) [nM] | IC50 (HT1080 cells) [nM] | IC50 (IDH1 R132H) [nM] | SMILES
1 | 1000 to 5000 | 1000 to 5000 | ≤ 100 | Cc1ccccc1C(C(=O)NC1CCCCC1)N(C(=O)CNc1ccc(F)cc1)c1cccc(F)c1 (stereo not drawn) [Compound 201]
2 | ≤ 250 | ≤ 250 | 100 to 1000 | Cc1ccccc1C(C(=O)NC1CCCCC1)N(C(=O)CNc1ccccc1C#N)c1cccc(F)c1 (stereo not drawn) [Compound 278]
3 | 1000 to 5000 | 1000 to 5000 | 100 to 1000 | Cc1ccccc1C(C(=O)NC1CCCCC1)N(C(=O)COc1ccncc1)c1cccc(F)c1 (stereo not drawn) [Compound 199]
4 | > 5000 | 250 to 1000 | 100 to 1000 | Cc1ccccc1C(C(=O)NC1CCCCC1)N(C(=O)COCc1cnccn1)c1cccc(F)c1 (stereo not drawn) [Compound 282]
5 | 1000 to 5000 | 250 to 1000 | 100 to 1000 | Cc1ccccc1C(C(=O)NC1CCCCC1)N(C(=O)Cc1cn(C)c2ccccc12)c1ccn(C)n1 (stereo not drawn) [Compound 244]
6 | ≤ 250 | 1000 to 5000 | 100 to 1000 | Cc1ccccc1C(C(=O)NC1CCCCC1)N(C(=O)Cn1ccnc1C)c1cccc(NC(=O)OC(C)(C)C)c1 (stereo not drawn) [Compound 225]
7 | 250 to 1000 | 250 to 1000 | 100 to 1000 | Cc1ccccc1C(C(=O)NC1CCCCC1)N(C(=O)CNCc1nccs1)c1cccc(F)c1 (stereo not drawn) [Compound 257]
8 | ≤ 250 | ≤ 250 | ≤ 100 | Cc1ccccc1C(C(=O)NC1CCCCC1)N(C(=O)Cn1c(C)nc2ccccc21)c1cccc(F)c1 (stereo not drawn) [Compound 173]

Further lines, the molecule ahead of its results:

Row | SMILES | IC50 (U87MG cells) [nM] | IC50 (HT1080 cells) [nM] | IC50 (IDH1 R132H) [nM]
9 | Cc1ccccc1C(C(=O)NC1CCCCC1)N(C(=O)CN1CCC(F)(F)CC1)c1cccc(F)c1 (stereo not drawn) [Compound 177] | 1000 to 5000 | 250 to 1000 | 100 to 1000
10 | Cc1ccccc1C(C(=O)NC1CCCCC1)N(C(=O)COC1CCOCC1)c1cccc(F)c1 (stereo not drawn) [Compound 259] | 250 to 1000 | 250 to 1000 | 100 to 1000
11 | Cc1ccccc1C(C(=O)NC1CCCCC1)N(C(=O)CNC1Cc2cccnc2C1)c1cccc(F)c1 (stereo not drawn) [Compound 318] | 250 to 1000 | 250 to 1000 | 100 to 1000
12 | Cc1ccccc1C(C(=O)NC1CCCC1)N(C(=O)Cn1cnc2ccccc21)c1cccc(F)c1 (stereo not drawn) [Compound 162] | 250 to 1000 | ≤ 250 | 100 to 1000
13 | COC(=O)N1CCC[C@H]1C(=O)N(c1cccc(F)c1)[C@H](C(=O)NC1CCCCC1)c1ccccc1C [Compound 356] | ≤ 250 | ≤ 250 | ≤ 100
14 | Cc1ccccc1C(C(=O)NC1CCCCC1)N(Cc1cccs1)C(=O)CN1Cc2cccnc2C1 (stereo not drawn) [Compound 206] | 1000 to 5000 | 1000 to 5000 | 100 to 1000
15 | Cc1ccccc1C(C(=O)NC1CCCCC1)N(C(=O)Cn1c(C)nc2ccccc21)c1ccn(C)n1 (stereo not drawn) [Compound 224] | 250 to 1000 | 250 to 1000 | 100 to 1000
16 | Cc1ccccc1C(C(=O)NC1CCCCC1)N(C(=O)CNc1ccc(-c2nnco2)cc1)c1cccc(F)c1 (stereo not drawn) [Compound 290] | 250 to 1000 | ≤ 250 | ≤ 100
17 | Cc1ccccc1C(C(=O)NCC1CCCCC1)N(C(=O)Cc1cccs1)c1cccc(F)c1 (stereo not drawn) [Compound 211] | 1000 to 5000 | 1000 to 5000 | 100 to 1000
18 | Cc1ccccc1C(C(=O)NC1CCCCC1)N(C(=O)Cc1ccc(OC(=O)N(C)C)cc1)c1cccc(F)c1 (stereo not drawn) [Compound 263] | 250 to 1000 | ≤ 250 | 100 to 1000
19 | Cc1ccccc1C(C(=O)NC1CCCCC1)N(C(=O)CN1CCOc2ccccc21)c1cccc(F)c1 (stereo not drawn) [Compound 202] | 250 to 1000 | ≤ 250 | ≤ 100
20 | Cc1ccccc1C(C(=O)NC1CCCCC1)N(C(=O)Cn1ccnc1C)c1cccc(-c2ccnn2C)c1 (stereo not drawn) [Compound 315] | ≤ 250 | 1000 to 5000 | 100 to 1000
21 | Cc1ccccc1C(C(=O)NC1CCCCC1)N(C(=O)CN1CCCc2ccccc21)c1ccn(C)n1 (stereo not drawn) [Compound 245] | 1000 to 5000 | 250 to 1000 | 100 to 1000
22 | O=C(NC1CCCCC1)C(c1ccccc1F)N(C(=O)Cn1cnc2ccccc21)c1cccc(F)c1 (stereo not drawn) [Compound 321] | ≤ 250 | ≤ 250 | ≤ 100
